From patent publication US20140275259A1, “Direct Lipid to Membrane Drug Delivery” (APPLIED BIORESEARCH, INC., priority 2013, published 2014)
Read-outs that look alike come from different tables or passages of the source.

How the values were obtained:
[1] = aqueous composition containing MBK, pH 7.0 and pH 9.6, 5 hours
Protocol: Cells in the digestive track, such as CACO-2 cells are typically used to model absorption in the small intestine. CACO-2 cells, developed by the Sloan-Kettering Institute from human epithelial colorectal adenocarcinoma cells, are widely used to predict drug absorption. […] permeability assay (PAMPA) uses an artificial cell membrane to model drug permeability. In either test, the drug is dissolved in an aqueous solution mimicking the target gastric fluid. The fluid is contacted with the membrane, and the passage of the drug through the membrane over a period of time is used to assess permeability.
PAMPA measures how quickly the drug can exit a water-solvated environment and pass through a cell membrane. Since most drugs are hydrophobic, it is expected that there will be significant absorption by the cells lining the digestive tract.

in vivo = settings: rat
[2] = rat; for Halflife / Tmax: mean
[3] = dogs, rectal, aqueous solution; cited from earlier work
[4] = Group B, intravenous, 1.37 mg/kg

O=C([O-])CN(CCN(CC(=O)[O-])CC(=O)[O-])CC(=O)[O-].[Ca+2].[Na+].[Na+] [CaNa2EDTA, calcium disodium ethylenediaminetetraacetate]
passage of drug through the artificial cell membrane (PAMPA) [1]: completely negative
bioavailability at 8 hours (in vivo): 36.3%
AUC (in vivo; 213.5 mg/kg): 106000 ng·h/mL
AUC(0-inf) (in vivo; 213.5 mg/kg): 307000 ng·h/mL
Cmax (in vivo; 213.5 mg/kg): 30600 ng/mL
AUC (in vivo; iv, 1.37 mg/kg): 1860 ng·h/mL
AUC(0-inf) (in vivo; iv, 1.37 mg/kg): 1910 ng·h/mL
Cmax (in vivo; iv, 1.37 mg/kg): 2070 ng/mL
Halflife [2, 4]: 1.50 h
Tmax [2, 4]: 4.98 min
Tmax ([2]; Group C, rectal suppository, 213.5 mg/kg): 25 min
Halflife ([2]; Group C, rectal suppository, 213.5 mg/kg, terminal elimination phase not observed, calculation interpolated): 8.20^1 Hour
drug absorbed within eight hours ([2]; suppository with MBK as the excipient): over 36.3%

O=C(O)CN(CCN(CC(=O)O)CC(=O)O)CC(=O)O [EDTA]
absorption [3]: ~13%
